Reference: patent publication US10874685B2, “Pancreatic cancer therapy and diagnosis” (Deutsches Krebsforschungszentrum Stiftung des Öffentlichen …, priority 2014, dated 2020)
“Also recorded” adds a separate entry of the source.

Assays:
PANC-1 cells = test: Transwell (Boyden chamber) migration assay, PANC-1; assay type: cell-based, human; conditions: PANC-1, Boyden chamber, increasing doses, 4 h
MIAPaCa-2 cells = test: Orthotopic pancreatic tumor mouse model treated with DRD2 antagonists; assay type: in vivo, mice; conditions: compared to vehicle
Protocol: Two million MIAPaCa-2 cells were resuspended in 10 μL Matrigel (BD Biosciences, San Jose, Calif.) were orthotopically implanted into the tail of the pancreas of 6-week-old Nod scid gamma animals (Jackson Labs, Bar Harbor, Me.) (day 1). When tumors were palpable (day 27), mice were randomized into 2 groups (n=7 in control group and n=9 in haloperidol group) and injected intraperitoneally with either haloperidol (10 mg/kg) or solvent (dimethylsulfoxide [DMSO] control group) for 12 days. The experiment was terminated when control mice appeared moribund. Weight of the animal and final tumor weight and volume were measured.

[1] = tested on: KPC-023, KPC-01 and KPC-LM pancreatic cancer cell lines; test: Viability of primary and metastatic pancreatic cancer cell lines isolated from KPC mice; assay type: cell-based; conditions: primary (KPC-023, KPC-01) and metastatic (KPC-LM) lines
MIAPaCa-2 xenograft = test: Combination therapy in NSG mice, MIAPaCa-2 xenograft model; assay type: in vivo; conditions: i.p. 16 days; pimozide 10 mg/kg daily; gemcitabine 20 mg/kg every 4 days
Source text: Tumor volumes normalized to initial measurement shown in the y-axis every four days following treatment with either vehicle (gray line), the chemotherapeutic gemcitabine (green line), a combination therapy of 2-deoxy-D-glucose, atorvastatin and pimozide (2DG+ATR+Pim, redline), or a combination therapy of 2DG+ATR+Pim and gemcitabine (2DG+ATR+Pim+Gem, red dashed line) (FIG. 12A). […] Tumor weight (FIG. 12C) and volume of samples (FIG. 12D) harvested following treatment with, from left to right, control (Vehicle), 2DG+ATR, Pim alone, Pim+2DG+ATR, Gem alone, 2DG+ATR+Gem, Pim+Gem, or Pim+2DG+ATR+Gem.
NOD severe combined immunodeficiency gamma (NSG) mice were subcutaneously injected in the right flank with five million MIAPaCa-2 cells. Once tumors were detectable (200 mm^3), mice were randomized into 8 groups (5 in each group) and treated through intraperitoneal injection as indicated for 16 days. All drugs were given every day whereas gemcitabine was given every 4 days, alone or in combination. Experiment was terminated when control animals became moribund. The growth of tumors was measured every 4 days. Tumors were harvested and photographed. Tumor weights and volumes were measured.
The efficacy of the combined treatment approach was investigated using a MIAPaCa-2 xenograft model of pancreatic cancer.

O=c1[nH]c2ccccc2n1C1CCN(CCCC(c2ccc(F)cc2)c2ccc(F)cc2)CC1 [pimozide]
migrated cells (PANC-1 cells): significantly reduced migrated cells; also recorded: Dose dependent inhibitory effect
metastatic dissemination (MIAPaCa-2 cells): reduces tumor volume, metastasis
tumor volume (MIAPaCa-2 cells; haloperidol 10 mg/kg intraperitoneally for 12 days): reduces tumor volume
viability of KPC mouse pancreatic cancer cell lines [1]: sensitive; also recorded: Dose-dependent effects
tumor volume (MIAPaCa-2 xenograft): reduced tumor weight and volume
tumor weight (MIAPaCa-2 xenograft): reduced tumor weight
